This passage reports EC50, IC50 and outcome results from PubChem BioAssay AID179 (DTP/NCI, 2004).

The term EC50 denotes the midpoint of the concentration-response curve. For orientation: IC50 means the concentration that inhibits the measured activity by half. Lower therefore signals higher potency.

Calls of active or inactive are those of the source.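 Rule for the calls: active = compounds giving half or more protection of infected cells from virus-caused growth loss, again on retest; inactive = the rest.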 Some results are limits rather than exact numbers.

The test system of the assay is CEM cells HIV-1 protection, formazan growth assay. Kind of assay: NCI AIDS Antiviral Assay. Particulars: for IC50: measured here: growth of uninfected CEM cells. The essentials:
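Human CEM cells, uninfected and HIV-1-infected, received five drug concentrations, and growth was read by soluble formazan assay. Compounds giving at least 50% protection were retested; reproducible 100% protection defined confirmed active.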

For `N#Cc1ccc(Oc2cccc(N)c2)cc1C#N`, the EC50 was greater than 214 µM and the IC50 was greater than 214 µM.
For `O=C(O)/C=C\C(=O)Nc1ccc(SSc2ccc(NC(=O)/C=C\C(=O)O)cc2)cc1`, the EC50 was 182 µM and the concentration for half-maximal inhibition (IC50) is greater than 200 µM.
On the same counts, the results for `O=C1CC(NC(=O)C(F)(F)F)c2c(Br)sc(N3CCC(c4ccccc4)CC3)c21` (configuration not stated) are greater than 200 µM and 145 µM.
On the same counts, the results for `COC(=O)C1(C)CC(c2ccccc2)=NC1c1ccccc1` (configuration not stated) are greater than 123 µM and greater than 123 µM.
On the same counts, the results for `O=C(N/N=C\c1cccc(/C=N\NC(=O)Nc2ccc(N=Nc3ccccc3)cc2)n1)Nc1ccc(N=Nc2ccccc2)cc1` are greater than 200 µM and 39.8 µM.
Regarding `COC1OC2COC(C)(C)OC2C2OC(C)(C)OC12` (configuration not stated), the EC50 was greater than 200 µM and the IC50 came to 182 µM.
On the same counts, the results for `Cc1nc2c(-c3ccccc3)[nH]c(C)c2c(=O)o1` are greater than 200 µM and 69.2 µM.
On the same counts, the results for `NC(=O)C(=CN1C(=O)/C(=C/c2ccccc2O)SC1=S)C(N)=O` are greater than 200 µM and 123 µM.
For the molecule `COc1ccc(C(=C[N+](=O)[O-])c2ccc(OC)cc2)cc1`, the outcome was inactive.
Turning to `COc1ccc2c(c1OC)C(=O)c1cc(C(C)O)oc1C2=O` (configuration not stated), the outcome was inactive.
With `Cc1ccc(C(=O)Nc2ccc(S(=O)(=O)O)c3cc(S(=O)(=O)O)cc(S(=O)(=O)O)c23)cc1N`, the EC50 was greater than 200 µM and the IC50 is greater than 200 µM.
As to `C[C@]12CCC3[C@@H](C[C@H]4OC(=O)[C@@]35CCC(=O)C=C45)C1CCC2=O` (some centres not stated), the outcome was inactive.
Take `CCOP(=O)(C/C(=N/NC(C)(C)C)C(=O)Nc1nc2ccc(C)cc2s1)OCC`: the EC50 is greater than 58.9 µM and the IC50 is greater than 58.9 µM.
Take `COc1cc(N)c2c(c1)SCCC(=O)N2`: the EC50 was greater than 200 µM and the IC50 was greater than 200 µM.
Turning to `NC1=NS(=O)(=O)Nc2nc(-c3ccc([N+](=O)[O-])o3)[nH]c21`, the EC50 is greater than 200 µM and the IC50 is 10 µM.
For the molecule `O=c1cc(-c2ccccc2)oc2c1ccc1[nH]c3ccccc3c(=O)c12`, the EC50 is greater than 200 µM and the IC50 is greater than 200 µM.
As for `CCC(=O)SC1CC2=CC(=O)CCC2(C)C2CCC3(C)C(O)CCC3C12` (configuration not stated), the EC50 is greater than 200 µM and the IC50 was greater than 200 µM.
For `NC(N)=NS(=O)(=O)c1ccc(N=c2c3ccccc3n(-c3ccccc3)c3ccccc23)cc1`, the outcome was inactive.
As for `COC(=O)C(Cc1nc2ccccc2[nH]c1=O)C(=O)C(=O)Nc1ccc([N+](=O)[O-])cc1[N+](=O)[O-]` (configuration not stated), the EC50 was greater than 55 µM and the IC50 was 25.7 µM.
On the same counts, the results for `CS(=O)(=O)Nc1ccc2c(c1)N(S(C)(=O)=O)CC2COS(C)(=O)=O` (configuration not stated) are greater than 200 µM and 40.7 µM.
Take `O=C1CCCCC1CN1CCOCC1` (configuration not stated): the result was inactive.
As for `Nc1nc(N)c2cc(Cl)ccc2n1`, the EC50 is greater than 1290 µM and the IC50 was determined as 26.9 µM.
On the same counts, the results for `CCON1CC(C(=O)OC)=C(O)C1=O` are greater than 200 µM and greater than 200 µM.
As to `C=CCOC(=O)C1C2OC3(C(C(=O)OC)=C2C(=O)OC)c2ccccc2CCC13` (configuration not stated), the EC50 is greater than 200 µM and the IC50 is 1.15 µM.
Consider `COc1cccc(C2NC(=O)N3C(c4cccc(OC)c4)NC(=O)N23)c1` (configuration not stated), for which the EC50 is greater than 200 µM and the IC50 stood at 89.1 µM.
On the same counts, the results for `COc1ccc(C2=C(Cl)c3cc(OC)c(OC)cc3C2OC)cc1OC` (configuration not stated) are greater than 26.3 µM and greater than 26.3 µM.
On the same counts, the results for `CN1c2ccccc2C2=C(c3ccccc3)CC[C@@H](C(=O)N3C4CC5CC[C@@]4(CS3(=O)=O)C5(C)C)[C@@H]21` (some centres not stated) are greater than 200 µM and 129 µM.
On the same counts, the results for `CNC(=O)C(C)NC(=O)C(Cc1ccccc1)NC(=O)OC(C)(C)C` (configuration not stated) are greater than 200 µM and greater than 200 µM.
Consider `CN(c1ccc(C(=O)c2ccc(N(C)S(C)(=O)=O)cc2)cc1)S(C)(=O)=O`, for which the EC50 was greater than 25.1 µM and the IC50 is greater than 25.1 µM.
As for `CCO/C(=C/C(=O)OC)NCCc1c[nH]c2ccccc12`, the EC50 is greater than 138 µM and the IC50 stood at 135 µM.
Turning to `CC1=C(C(=O)NNC(=O)CC#N)CC(C(=O)NNC(=O)CC#N)=C(C)N1`, the EC50 was greater than 200 µM and the concentration for half-maximal inhibition (IC50) came out at 123 µM.
For the molecule `CN(C(=O)C1=CCC2(CC1)OCCO2)c1ccccc1I`, the EC50 was greater than 200 µM and the IC50 was greater than 200 µM.
Consider `Cc1ccc(O)c(C(c2cccc(C(c3cc(C)ccc3O)c3cc(C)ccc3O)c2)c2cc(C)ccc2O)c1`, for which the EC50 is greater than 20 µM and the half-maximal inhibitory concentration (IC50) is 3.31 µM.
Turning to `CC(=O)C(C)(CCC(=O)O)CCC(=O)O`, the EC50 was greater than 955 µM and the IC50 is greater than 955 µM.
Take `CC(C)OP(=O)(OC(C)C)C(=Nc1ccccc1)NNc1ccc([N+](=O)[O-])cc1`: the EC50 is greater than 32.4 µM and the IC50 came out at 21.9 µM.
Regarding `CC(C)(C)C(=O)/C=C/c1cccc(F)c1`, the result was inactive.
Same read-out and setting: the value for `O=C(O)C1=C/C(=C(/c2ccccc2)c2cc(C(=O)O)c(O)c3ccccc23)c2ccccc2C1=O` was “inactive”.
`CC1(C)OC[C@H](COCOP2(=O)Oc3ccc4ccccc4c3-c3c(ccc4ccccc34)O2)O1`: the EC50 was greater than 200 µM and the IC50 was 34.7 µM.
With `N#Cc1c(N)nc(SCc2ccccc2)c(C#N)c1-c1ccc(O)cc1`, the EC50 was greater than 200 µM and the IC50 was found to be 10 µM.
Turning to `COC1/C=C/OC2(C)Oc3c(C)c(O)c4c(O)c(c(/C=N/NC5OC(COC(=O)c6ccccc6)C(OC(=O)c6ccccc6)C5OC(=O)c5ccccc5)c(O)c4c3C2=O)NC(=O)C(C)=C/C=C/C(C)C(O)C(C)C(O)C(C)C(OC(C)=O)C1C` (configuration not stated), the EC50 was greater than 200 µM and the IC50 came to 14.5 µM.
Turning to `NC(N)=NS(=O)(=O)c1ccc(NC(=O)c2ccc3nc4ccccc4c(Nc4ccc(S(N)(=O)=O)cc4)c3c2)cc1`, the EC50 is greater than 200 µM and the half-inhibitory concentration (IC50) stood at 148 µM.
On the same counts, the results for `COc1cc(OC)c2nc(C)c3c(c2c1)NCC3` are greater than 200 µM and 3.98 µM.
On the same counts, the results for `CCCCN=C(c1ccccc1)N1CCOCC1` are greater than 200 µM and greater than 200 µM.
On the same counts, the results for `FC(F)(Sc1ccccc1)c1nc2ccccc2o1` are greater than 77.6 µM and 66.1 µM.
As to `O=P(Nc1ccc(Cl)cc1)(Oc1ccccc1)N(CCCl)CCCl` (configuration not stated), the EC50 was greater than 17.8 µM and the IC50 was determined as 8.71 µM.
For the molecule `O=C(Cn1c2c(c3ccccc31)CCCC2)N1CCOCC1`, the EC50 is greater than 200 µM and the IC50 was greater than 200 µM.
In the case of `CC(=O)Oc1ccc2cc(Oc3cc(Cl)c(Cl)cc3Cl)c(=O)oc2c1`, the EC50 is greater than 200 µM and the half-maximal inhibitory concentration (IC50) was determined as 93.3 µM.
On the same counts, the results for `C/C(=N\NC(=S)Nc1ccc(S(N)(=O)=O)cc1)c1ccccn1` are greater than 145 µM and 8.51 µM.
On the same counts, the results for `N=C(N)SCCc1ccncc1` are greater than 200 µM and 155 µM.
As to `CCOC(=O)C1c2[nH]c3ccccc3c2CCN1C(=O)c1ccc(OC)o1` (configuration not stated), the EC50 was greater than 51.3 µM and the IC50 is 38.9 µM.
Regarding `C[C@H](N)C(O)C/C=C\C/C=C\C/C=C\C/C=C\C/C=C\C/C=C\CCCCCCC(O)[C@H](C)N` (some centres not stated), the outcome was inactive.
For the molecule `CCCC(=O)O[C@H]1[C@@H](OC(C)=O)C/C(C)=C\[C@@H]2OC(=O)[C@]3(C)OC23[C@@H](O)C2C3(C)OC3CC(OC(C)=O)[C@@]21C` (some centres not stated), the EC50 is greater than 117 µM and the IC50 was 32.4 µM.
On the same counts, the results for `CCC(=O)CCCC=C(c1cc(Cl)c(OC)c(C=O)c1)c1cc(Cl)c(OC)c(C=O)c1` are greater than 200 µM and 1.12 µM.
For the molecule `[Pt].c1ccc([PH+](CC[PH+](CC[PH+](c2ccccc2)c2ccccc2)c2ccccc2)CC[PH+](c2ccccc2)c2ccccc2)cc1` (configuration not stated), the EC50 is greater than 15.8 µM and the IC50 came to 12.6 µM.
As to `COc1ccc(N2C(=O)C3CC(c4ccc(Br)cc4)c4c([nH]c5ccccc45)C3C2=O)cc1` (configuration not stated), the EC50 is greater than 14.5 µM and the IC50 worked out at 11 µM.
On the same counts, the results for `CCOC(=O)c1c(-c2ccc(OC)cc2)c(C#N)c(=S)n(C2OC(COC(C)=O)C(OC(C)=O)C(OC(C)=O)C2OC(C)=O)c1-c1ccccc1` (configuration not stated) are greater than 200 µM and 25.7 µM.
In the case of `Nc1ncnc2c1ncn2C1CCC(CP(=O)(O)O)C1` (configuration not stated), the EC50 was greater than 200 µM and the IC50 was greater than 200 µM.
Regarding `COc1cc(/C=C2/SC(c3ccccc3)N(c3cccc([N+](=O)[O-])c3)C2=O)cc(OC)c1OC` (configuration not stated), the EC50 is greater than 200 µM and the IC50 is 107 µM.
With `COC(=O)C(=O)C(/C=N/C(=S)Nc1ccc(S(=O)(=O)Nc2nccs2)cc1)=C(\O)c1c(C)[nH]c2ccccc12`, the EC50 is greater than 200 µM and the IC50 was found to be 72.4 µM.
Regarding `COc1ccc(C2C(C#N)=C(S)N(C3OC(CO)C(O)C(O)C3O)C(c3ccccc3)=C2C(C)=O)cc1` (configuration not stated), the EC50 was greater than 200 µM and the IC50 turned out to be 89.1 µM.
For `CCOC(=O)c1c(NS(=O)(=O)c2ccc(C)cc2)sc2c1CCCC2`, the EC50 is greater than 200 µM and the IC50 worked out at 25.1 µM.
On the same counts, the results for `Cn1c(-c2ccc(/C=N/NC(N)=NCCCCCCN=C(N)N/N=C/c3ccc(-c4c[n+]5ccccc5n4C)cc3)cc2)c[n+]2ccccc12` are 2.24 µM and 30.2 µM.
Turning to `Cc1nc(-c2ccc([N+](=O)[O-])cc2)cn2c1nc1ccccc12`, the EC50 was 457 µM and the IC50 was determined as 501 µM.
As for `N#CC1(Cc2ccc(N)cc2)c2ccccc2C=CN1C(=O)c1ccccc1` (configuration not stated), the outcome was inactive.
`[N-]=[N+]=Nc1ncnc2c1sc(=S)n2-c1ccccc1`: the EC50 was greater than 91.2 µM and the IC50 was greater than 91.2 µM.
Take `CCOC(=O)CN1C(=O)C(=O)c2ccccc21`: the EC50 was greater than 200 µM and the IC50 was found to be 33.9 µM.
Regarding `COc1c2c3c(c(OC)c1OC)-c1ccc(O)cc1C3=NCC2`, the result was inactive.
Turning to `C[C@]12CCC(=O)C=C1CC[C@@H]1C2CC[C@]2(C)Nc3c(cnn3-c3ccccc3)CC12` (some centres not stated), the result was inactive.
In the case of `O=C1CCCCCCCCCCOC(=O)CCCCCCCCCCO1`, the EC50 was greater than 10.2 µM and the IC50 is greater than 10.2 µM.
